The source of these data is ChEMBL document CHEMBL1201862, “PubChem BioAssay data set” (2004).

Some test systems named below: SK-OV-3; K562; 786-0; NCI/ADR-RES; KM12; MDA-MB-435; HT-29; PC-3; MOLT-4; SN12C; IGROV-1; SK-MEL-28; OVCAR-3; COLO 205; EKVX; M14; MDA-N; SF-295; U-251; SK-MEL-2.
Holding throughout (assay): NCI-60 cell line screen, 48 h

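Exposure lasted 48 hours, with cells grown in 96-well plates and compounds tested at five concentrations. Here, GI50 denotes the concentration required for 50% inhibition of growth.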 Active and inactive are the calls of the source. No stated cut-off is given here; in the data, active = GI50 up to about 1.1 µM and inactive = higher. Where only a bound is given, the exact number is not on record here.

On to `NC(=O)C1=C(O)C[C@@H]2CC3Cc4cccc(O)c4C(=O)C3=C(O)[C@]2(O)C1=O` (some centres undefined), for which the GI50 was 3.69 µM (inactive) in the experiment on SK-OV-3; 1.81 µM (inactive) in the experiment with K562; 3.24 µM (inactive) in the experiment on 786-0; 3.24 µM (inactive) in the experiment with NCI/ADR-RES; 9.55 µM (inactive) in the experiment on KM12; 10.1 µM (inactive) with MDA-MB-435. The GI50 was 0.339 µM (active) in the experiment on HT-29; 1.8 µM (inactive) in the experiment on PC-3; 1.61 µM (inactive) in the experiment on MOLT-4; 3.01 µM (inactive) with SN12C; 2 µM (inactive) in the experiment on IGROV-1; 4 µM (inactive) in the experiment on SK-MEL-28. Further, the GI50 in the experiment on OVCAR-3 is 2.77 µM (inactive); with COLO 205 it was 1.63 µM (inactive); with EKVX, 0.861 µM (active); in the experiment on M14 it was 1.84 µM (inactive); in the experiment on MDA-N it was 2.9 µM (inactive); in the experiment with SF-295, 1.85 µM (inactive). In addition, the figures for the GI50 with U-251 and in the experiment with SK-MEL-2 were 0.962 µM (active) and 1.86 µM (inactive), respectively.

Regarding `O=C(CN1CCCC1)Nc1ccc2sc3ccccc3c(=O)c2n1`, the GI50 in the experiment on SK-OV-3 was 20.7 µM (inactive); in the experiment on K562 it was 6.82 µM (inactive); in the experiment with 786-0 it was 14.9 µM (inactive); in the experiment with NCI/ADR-RES, 15.5 µM (inactive); with KM12 it was 19.5 µM (inactive); in the experiment on MDA-MB-435, 14.7 µM (inactive). In addition, the GI50 with HT-29 was 34 µM (inactive); with PC-3 it was 14.7 µM (inactive); in the experiment with MOLT-4 it was 1.91 µM (inactive); in the experiment on SN12C it was 16.4 µM (inactive); with IGROV-1, 23.2 µM (inactive); in the experiment with SK-MEL-28, 19.3 µM (inactive). For the same molecule, the GI50 is 42.9 µM (inactive) in the experiment on OVCAR-3; 14 µM (inactive) in the experiment with COLO 205; 32.7 µM (inactive) in the experiment on EKVX; 24 µM (inactive) in the experiment on M14; 20.8 µM (inactive) with MDA-N; 22.6 µM (inactive) in the experiment on SF-295. Also, the GI50 in the experiment with U-251 was 18.7 µM (inactive); with SK-MEL-2, 21.1 µM (inactive).

Regarding `COC(=O)CNC(=O)CSc1nnc(COc2ccc(Cl)cc2)n1-c1ccccc1`, the GI50 was > 100 µM (inactive) in the experiment with SK-OV-3; > 100 µM (inactive) in the experiment on K562; 16.1 µM (inactive) in the experiment on 786-0; > 100 µM (inactive) in the experiment on NCI/ADR-RES; 56.9 µM (inactive) in the experiment with KM12; 20.8 µM (inactive) in the experiment on MDA-MB-435. The GI50 is 40.6 µM (inactive) in the experiment on HT-29; 24 µM (inactive) in the experiment with PC-3; 64.1 µM (inactive) in the experiment with MOLT-4; 19.8 µM (inactive) in the experiment on SN12C; 21 µM (inactive) with IGROV-1; 26.6 µM (inactive) in the experiment with SK-MEL-28. The GI50 is 71.8 µM (inactive) in the experiment with OVCAR-3; > 100 µM (inactive) with COLO 205; > 100 µM (inactive) in the experiment with EKVX; 37.3 µM (inactive) with M14; 19.2 µM (inactive) in the experiment with MDA-N; > 100 µM (inactive) in the experiment on SF-295. Also, the results for the GI50 in the experiment with U-251 and in the experiment on SK-MEL-2 were 38.6 µM (inactive) and 23.5 µM (inactive), respectively.

For `CCOC(=O)C(NC(=O)CC)(Nc1ccc(F)c(Cl)c1)C(F)(F)F` (centres undefined), the GI50 in the experiment with SK-OV-3 was > 100 µM (inactive); in the experiment with K562, > 29.2 µM (inactive); with 786-0, > 100 µM (inactive); in the experiment on NCI/ADR-RES, 78.2 µM (inactive); in the experiment on KM12 it was 35.8 µM (inactive); in the experiment on MDA-MB-435, > 92.9 µM (inactive). Further, the GI50 is > 100 µM (inactive) in the experiment with HT-29; > 64.1 µM (inactive) with PC-3; > 74.8 µM (inactive) with MOLT-4; > 100 µM (inactive) in the experiment on SN12C; > 100 µM (inactive) in the experiment on IGROV-1; > 100 µM (inactive) in the experiment with SK-MEL-28. The GI50 was > 100 µM (inactive) in the experiment on OVCAR-3; > 100 µM (inactive) in the experiment with COLO 205; > 100 µM (inactive) in the experiment with EKVX; 40.5 µM (inactive) in the experiment on M14; > 100 µM (inactive) in the experiment with MDA-N; > 76.4 µM (inactive) in the experiment with SF-295. Moreover, the values for the GI50 in the experiment with U-251 and in the experiment with SK-MEL-2 were > 100 µM (inactive) and > 70 µM (inactive), respectively.

As to `CC(C)CCC1(O)O[C@H]2C[C@H]3[C@@H]4CCC5CC(=O)C=C[C@]5(C)[C@H]4CC[C@]3(C)[C@H]2[C@@H]1C` (some centres undefined), the GI50 in the experiment with SK-OV-3 was 18.8 µM (inactive); in the experiment with K562, 5.07 µM (inactive); with 786-0, 12.3 µM (inactive); in the experiment on NCI/ADR-RES it was 15.6 µM (inactive); with KM12, 11.8 µM (inactive); in the experiment with MDA-MB-435 it was 11.6 µM (inactive). Moreover, the GI50 in the experiment with HT-29 is 7.64 µM (inactive); in the experiment on PC-3 it was 5.02 µM (inactive); in the experiment with MOLT-4 it was 2.56 µM (inactive); in the experiment on SN12C, 14.4 µM (inactive); in the experiment on IGROV-1, 15.6 µM (inactive); in the experiment on SK-MEL-28 it was 11.5 µM (inactive). In addition, the GI50 was 10.8 µM (inactive) in the experiment with OVCAR-3; 14.4 µM (inactive) in the experiment with COLO 205; 16.7 µM (inactive) in the experiment with EKVX; 15.9 µM (inactive) in the experiment with M14; 13.2 µM (inactive) with MDA-N; 11.7 µM (inactive) in the experiment with SF-295. The values for the GI50 in the experiment with U-251 and with SK-MEL-2 were 10.7 µM (inactive) and 15.2 µM (inactive), respectively.

Take `CCCCC1NC=Nc2c1ccc1c2[nH]c2ccccc21` (centres undefined): the GI50 in the experiment on SK-OV-3 is 5.87 µM (inactive); with K562 it was 1.87 µM (inactive); with 786-0, 1.79 µM (inactive); with NCI/ADR-RES, 1.95 µM (inactive); in the experiment on KM12, 5.82 µM (inactive); with MDA-MB-435, 1.88 µM (inactive). The GI50 with HT-29 is 1.86 µM (inactive); with PC-3, 1.69 µM (inactive); in the experiment with MOLT-4 it was 2.05 µM (inactive); in the experiment on SN12C it was 2.89 µM (inactive); in the experiment on IGROV-1, 3.08 µM (inactive); with SK-MEL-28 it was 10.3 µM (inactive). Further, the GI50 with OVCAR-3 was 6.1 µM (inactive); in the experiment with COLO 205, 1.79 µM (inactive); in the experiment with EKVX it was 3.8 µM (inactive); in the experiment on M14, 2.41 µM (inactive); in the experiment on MDA-N, 1.75 µM (inactive); with SF-295, 2.48 µM (inactive). The GI50 in the experiment with U-251 was 2.95 µM (inactive); with SK-MEL-2, 3.82 µM (inactive).

On to `CCN1C(=O)C(=C/C=C/c2ccc(N(CC)CC)cc2)C(=O)N(CC)C1=S`, for which the GI50 with SK-OV-3 was > 100 µM (inactive); with K562, 83.9 µM (inactive); with 786-0, > 100 µM (inactive); with NCI/ADR-RES it was 33.9 µM (inactive); with KM12, > 100 µM (inactive); in the experiment on MDA-MB-435 it was 86.9 µM (inactive). The GI50 with HT-29 was > 100 µM (inactive); with PC-3 it was 72.4 µM (inactive); in the experiment on MOLT-4, 33.9 µM (inactive); with SN12C, > 100 µM (inactive); in the experiment on IGROV-1, > 100 µM (inactive); in the experiment on SK-MEL-28 it was > 100 µM (inactive). Also, the GI50 in the experiment on OVCAR-3 was 18 µM (inactive); with COLO 205, > 100 µM (inactive); in the experiment with EKVX, > 100 µM (inactive); with M14, > 100 µM (inactive); with MDA-N it was 74.8 µM (inactive); in the experiment with SF-295 it was > 100 µM (inactive). In addition, the GI50 with U-251 is > 100 µM (inactive); in the experiment with SK-MEL-2, 68.5 µM (inactive).

Take `CC1(C)N=C(N)N=C(N)N1c1cccc(C(=O)Nc2ccc(S(=O)(=O)F)cc2)c1`: the GI50 in the experiment with SK-OV-3, with K562, with 786-0, in the experiment on NCI/ADR-RES, in the experiment with KM12 and with MDA-MB-435 was > 100 µM (inactive) each time. Further, the GI50 with HT-29, in the experiment on PC-3, with MOLT-4, with SN12C, in the experiment on IGROV-1 and with SK-MEL-28 was > 100 µM (inactive) each time. The GI50 in the experiment on OVCAR-3, in the experiment on COLO 205, in the experiment on EKVX, in the experiment on M14, in the experiment on MDA-N and in the experiment with SF-295 was > 100 µM (inactive) each time. The GI50 with U-251 and in the experiment with SK-MEL-2 was > 100 µM (inactive) each time.

On to `O=C(O)CCCSc1ccccc1`, for which the GI50 in the experiment with SK-OV-3, in the experiment with K562, in the experiment with 786-0, in the experiment with NCI/ADR-RES, in the experiment on KM12 and with MDA-MB-435 was > 100 µM (inactive) each time. Besides, the GI50 with HT-29, with PC-3, with MOLT-4, in the experiment with SN12C, with IGROV-1 and in the experiment on SK-MEL-28 was > 100 µM (inactive) throughout. The GI50 with OVCAR-3, with COLO 205, in the experiment with EKVX, in the experiment with M14, in the experiment on MDA-N and in the experiment with SF-295 was > 100 µM (inactive) throughout. Besides, the GI50 in the experiment with U-251 and with SK-MEL-2 was > 100 µM (inactive) each time.

For `Cc1cn([C@H]2C=C[C@@H](CO)O2)c(=O)[nH]c1=O` [STAVUDINE], the GI50 in the experiment with SK-OV-3 is > 1000 µM (inactive); with K562 it was > 1000 µM (inactive); in the experiment with 786-0, 652 µM (inactive); in the experiment with NCI/ADR-RES it was 678 µM (inactive); in the experiment with KM12, > 1000 µM (inactive); with MDA-MB-435, > 1000 µM (inactive). Besides, the GI50 in the experiment on HT-29, with PC-3, in the experiment on MOLT-4, in the experiment on SN12C, in the experiment with IGROV-1 and in the experiment on OVCAR-3 was > 1000 µM (inactive) in each case. The GI50 in the experiment on COLO 205 was 410 µM (inactive); in the experiment with EKVX, > 1000 µM (inactive); with M14, > 1000 µM (inactive); with MDA-N, > 1000 µM (inactive); in the experiment on SF-295 it was > 1000 µM (inactive); in the experiment with U-251 it was > 1000 µM (inactive). In addition, the GI50 in the experiment on SK-MEL-2 was > 1000 µM (inactive).
